Test results: patent US8394781B2, “Disaccharides for the treatment of tendons, ligaments, and bones” (Bioiberica, S.A., priority 2007, dated 2013)

System: human tenocytes
Assay: Human tenocyte adhesion and proliferation, in vitro culture, manual count in ten microscopic fields
Format: cell-based
Settings: IGF-1 10 ng/mL, same increase reached after 9 hours, FIG. 2
Description: The objective was to determine the effect of compound Ic on human tenocyte proliferation and adhesion in an in vitro culture model, since a drug stimulating tenocyte proliferation and adhesion could be especially useful in the treatment or repair of tendons.
For comparison purposes, the effect of the growth factor IGF-1 on human tenocyte proliferation and adhesion in the same type of in vitro culture model was determined.
The increase of adhered tenocytes was quantified by means of manual count in ten microscopic fields.
Human tendon explants (of approximately 3-5 mm) were cultured in a culture flask with culture medium formed by 10% FCS, DMEM/Ham-12 (50/50) (Dulbecco's Modified Eagle's Medium with Ham-12), 50 IU/mL of penicillin/streptomycin, […] of ascorbic acid, 2.5 μg/mL of amphotericin B, 1% glutamine and 1% essential amino acids. […]
Twelve-well plates were prepared with 15,000 tenocytes/well and they were incubated with 10% FCS (fetal calf serum). On the following day, the cells were washed three times with serum-free culture medium (0.5% FCS) and were incubated for 30 minutes with serum-free culture medium, after which the control cultures were counted (time “0 hours”). […]
In all the assays, the cells were incubated for 71 hours and each well was evaluated in each time period by means of a manual count in 10 microscopic fields. […]

IGF-1: growth factor IGF-1 (Insulin-like Growth Factor 1), used for comparison at 10 ng/mL
increase in the number of adhered tenocytes with respect to the control: ~45%
